PubChem BioAssay (NCI)
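Values below derive from 48-hour exposures of cells grown in 96-well plates, with endpoints linearly interpolated between the two concentrations bracketing the appropriate inhibition level. GI50 marks 50% less growth. Definition used: TGI = concentration required for complete inhibition of growth.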

Experiments:
Test in all cases: growth of human tumour cells (NCI), 48 h
[1] = tested on: BT-549 breast
[2] = tested on: M14 melanoma
[3] = tested on: SN12C renal
[4] = tested on: CAKI-1 renal
[5] = tested on: SF-268 CNS
[6] = tested on: SW-620 colon
[7] = tested on: COLO 205 colon
[8] = tested on: NCI-H460 lung
[9] = tested on: UACC-62 melanoma
[10] = tested on: UACC-257 melanoma
[11] = tested on: NCI-H23 lung
[12] = tested on: HCC-2998 colon
[13] = tested on: SF-295 CNS
[14] = tested on: K-562 leukemia
[15] = tested on: SR leukemia
[16] = tested on: OVCAR-8 ovarian
[17] = tested on: PC-3 prostate
[18] = tested on: SNB-19 CNS
[19] = tested on: U251 CNS
[20] = tested on: MDA-MB-231 breast
[21] = tested on: A498 renal
[22] = tested on: KM12 colon
[23] = tested on: DU-145 prostate
[24] = tested on: NCI/ADR-RES ovarian
[25] = tested on: EKVX NSCLC
[26] = tested on: RXF 393 renal
[27] = tested on: MALME-3M melanoma
[28] = tested on: NCI-H522 lung
[29] = tested on: MCF7 breast
[30] = tested on: T-47D breast
[31] = tested on: TK-10 renal
[32] = tested on: HT29 colon
[33] = tested on: OVCAR-3 ovarian
[34] = tested on: NCI-H226 lung
[35] = tested on: IGROV1 ovarian
[36] = tested on: SK-MEL-28 melanoma
[37] = tested on: HCT-15 colon
[38] = tested on: SNB-75 CNS
[39] = tested on: HS 578T breast
[40] = tested on: SK-OV-3 ovarian
[41] = tested on: MOLT-4 leukemia
[42] = tested on: HOP-92 NSCLC
[43] = tested on: HL-60(TB) leukemia
[44] = tested on: OVCAR-5 ovarian
[45] = tested on: MDA-MB-435
[46] = tested on: LOX IMVI melanoma
[47] = tested on: SK-MEL-2 melanoma
[48] = tested on: SK-MEL-5 melanoma
[49] = tested on: 786-0 renal
[50] = tested on: UO-31 renal
[51] = tested on: HOP-62 NSCLC
[52] = tested on: RPMI-8226 leukemia
[53] = tested on: A549 NSCLC
[54] = tested on: ACHN renal
[55] = tested on: OVCAR-4 ovarian
[56] = tested on: SF-539 CNS
[57] = tested on: HCT-116 colon
[58] = tested on: CCRF-CEM leukemia

C=CC(=O)N1CC2(CC(n3nc(-c4ccc(Oc5ccccc5)cc4)c4c(N)ncnc43)C2)C1
GI50 [1]: 1.4 µM
TGI [1]: > 100 µM
GI50 [2]: 2.23 µM
TGI [2]: > 100 µM
GI50 [3]: 0.78 µM
TGI [3]: > 100 µM
GI50 [4]: 1.04 µM
TGI [4]: > 100 µM
GI50 [5]: 1.43 µM
TGI [5]: > 100 µM
GI50 [6]: > 100 µM
TGI [6]: > 100 µM
GI50 [7]: 1.46 µM
TGI [7]: > 100 µM
GI50 [8]: > 100 µM
TGI [8]: > 100 µM
GI50 [9]: 1.72 µM
TGI [9]: > 100 µM
GI50 [10]: 1.97 µM
TGI [10]: > 100 µM
GI50 [11]: > 100 µM
TGI [11]: > 100 µM
GI50 [12]: > 100 µM
TGI [12]: > 100 µM
GI50 [13]: > 100 µM
TGI [13]: > 100 µM
GI50 [14]: 1.19 µM
TGI [14]: > 100 µM
GI50 [15]: 6.45 µM
TGI [15]: > 100 µM

COC1=CCC2=C(CCN(C(=O)C3CC3)C2Cc2ccc(OC)c(O)c2)C1 (stereo not drawn)
TGI [16]: > 100 µM
TGI [17]: > 100 µM
TGI [18]: > 100 µM
TGI [19]: > 100 µM
TGI [2]: > 100 µM
TGI [20]: > 100 µM
TGI [21]: > 100 µM
TGI [22]: > 100 µM
TGI [23]: > 100 µM
TGI [3]: > 100 µM
TGI [4]: > 100 µM
TGI [24]: 55.4 µM
TGI [25]: > 100 µM
TGI [26]: 59.5 µM
TGI [5]: > 100 µM
TGI [27]: > 100 µM
TGI [6]: > 100 µM
TGI [7]: > 100 µM
TGI [28]: 82.4 µM
TGI [29]: > 100 µM
TGI [30]: 70.9 µM
TGI [31]: > 100 µM
TGI [8]: > 100 µM
TGI [32]: > 100 µM
TGI [33]: > 100 µM
TGI [34]: > 100 µM
TGI [9]: > 100 µM
TGI [10]: > 100 µM
TGI [35]: > 100 µM
TGI [36]: > 100 µM
TGI [37]: 59.6 µM
TGI [38]: 67.4 µM
TGI [39]: > 100 µM
TGI [40]: > 100 µM
TGI [41]: > 100 µM
TGI [42]: 96.9 µM
TGI [43]: 91.7 µM
TGI [11]: 66.1 µM
TGI [12]: > 100 µM
TGI [44]: > 100 µM
TGI [45]: 68.8 µM
TGI [46]: > 100 µM
TGI [47]: > 100 µM
TGI [48]: > 100 µM
TGI [49]: > 100 µM
TGI [50]: > 100 µM
TGI [51]: > 100 µM
TGI [52]: > 100 µM
TGI [53]: > 100 µM
TGI [54]: > 100 µM
TGI [55]: > 100 µM
TGI [56]: > 100 µM
TGI [13]: > 100 µM
TGI [14]: > 100 µM
TGI [57]: > 100 µM
TGI [15]: 82.6 µM
TGI [58]: > 100 µM

CCc1cccc(C(C)C)c1NC1=C([n+]2ccc(C)cc2)C(=O)c2ccccc2C1=O
TGI [16]: 4.79 µM
TGI [17]: 8.91 µM
TGI [18]: > 100 µM
TGI [19]: 12.1 µM
TGI [2]: 3.16 µM
TGI [20]: > 34.7 µM
TGI [21]: 8.79 µM
TGI [22]: > 43.4 µM
TGI [23]: 3.92 µM
TGI [3]: 8.35 µM
TGI [4]: 5.41 µM
TGI [24]: 37.8 µM
TGI [25]: 5.16 µM
TGI [26]: 4.28 µM
TGI [5]: 5.8 µM
TGI [27]: 6.91 µM
TGI [6]: > 100 µM
TGI [7]: 2.57 µM
TGI [28]: 15.8 µM
TGI [29]: 1.3 µM
TGI [30]: 2.24 µM
TGI [31]: 29.1 µM
TGI [8]: 4.09 µM
TGI [32]: 7.75 µM
TGI [33]: 2.31 µM
TGI [34]: 8.76 µM
TGI [9]: 4.22 µM
TGI [10]: 4.45 µM
TGI [35]: 8.18 µM
TGI [36]: 20.8 µM
TGI [37]: 13.9 µM
TGI [38]: 7.32 µM
TGI [39]: > 100 µM
TGI [40]: 19.7 µM
TGI [41]: 9.43 µM
TGI [42]: 7.06 µM
TGI [43]: 9.29 µM
TGI [11]: > 100 µM
TGI [12]: 20.9 µM
TGI [44]: 23.2 µM
TGI [45]: 3.12 µM
TGI [46]: 3.39 µM
TGI [47]: 28.9 µM
TGI [48]: 4.66 µM
TGI [49]: 12.1 µM
TGI [50]: 10 µM
TGI [51]: 9.62 µM
TGI [52]: 2.71 µM
TGI [53]: 22.5 µM
TGI [54]: 1.68 µM
TGI [55]: 10.9 µM
TGI [56]: 4.27 µM
TGI [13]: 18.1 µM
TGI [14]: 20.3 µM
TGI [57]: > 100 µM
TGI [58]: 4 µM
